This note sets out measurements from the NIST ThermoML archive (doi:10.1021/je501130r).

For this series the following is noted: Liquid, Closed cell (Static) method.

As a reminder, the vapor or sublimation pressure is the equilibrium pressure above the liquid or solid.

± gives the expanded uncertainty stated by the source.

On to `CC(F)(Cl)C(F)(F)F` (stereo unspecified) [2-chloro-1,1,1,2-tetrafluoropropane], for which the “vapor or sublimation pressure” value (293.15 K) came to 128.3 ± 3 kPa, the “vapor or sublimation pressure” value (303.15 K) amounted to 181.6 ± 3.1 kPa and the “vapor or sublimation pressure” value (313.15 K) is given as 247.6 ± 3.1 kPa.

As for `C=C(F)C(F)(F)F` [2,3,3,3-tetrafluoro-1-propene], the “vapor or sublimation pressure” value (293.15 K) is listed as 591.5 ± 3.5 kPa, the “vapor or sublimation pressure” value (303.15 K) came out at 783.6 ± 3.8 kPa and the “vapor or sublimation pressure” value (313.15 K) came out at 1018.9 ± 4.3 kPa.
